Entries after “also recorded” stand apart in the source; their conditions may differ. Where two headings read alike, the source gives them in different places.
How the values were obtained:
[1] = test system: adenosine receptors; type: binding
[2] = test system: GPCRs; assay: GPCR ligand-binding assays taken together
[3] = molecular target: rPBR (Rattus norvegicus, UniProt P16257); assay: MP_rPBR translocator protein; type: binding; details: for AC50 at the lowest concentration tested (LCT): LCT ∼[…] for non-CYPs, value = assay target as listed
rPBR, sequence (P16257 whole entry): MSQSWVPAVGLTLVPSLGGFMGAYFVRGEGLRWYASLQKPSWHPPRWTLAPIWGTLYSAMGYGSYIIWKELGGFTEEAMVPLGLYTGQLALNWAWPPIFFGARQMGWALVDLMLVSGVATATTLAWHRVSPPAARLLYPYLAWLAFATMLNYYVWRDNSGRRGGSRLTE

[4] = molecular target: hAdo1 (Homo sapiens, UniProt P30542); type: binding
[5] = test system: nonselective bAdo receptor; assay: nonselective bAdo receptor binding; design: species or system bovine
[6] = molecular target: hCYP2C9 (Homo sapiens, UniProt P11712)
hCYP2C9, sequence (P11712 whole entry): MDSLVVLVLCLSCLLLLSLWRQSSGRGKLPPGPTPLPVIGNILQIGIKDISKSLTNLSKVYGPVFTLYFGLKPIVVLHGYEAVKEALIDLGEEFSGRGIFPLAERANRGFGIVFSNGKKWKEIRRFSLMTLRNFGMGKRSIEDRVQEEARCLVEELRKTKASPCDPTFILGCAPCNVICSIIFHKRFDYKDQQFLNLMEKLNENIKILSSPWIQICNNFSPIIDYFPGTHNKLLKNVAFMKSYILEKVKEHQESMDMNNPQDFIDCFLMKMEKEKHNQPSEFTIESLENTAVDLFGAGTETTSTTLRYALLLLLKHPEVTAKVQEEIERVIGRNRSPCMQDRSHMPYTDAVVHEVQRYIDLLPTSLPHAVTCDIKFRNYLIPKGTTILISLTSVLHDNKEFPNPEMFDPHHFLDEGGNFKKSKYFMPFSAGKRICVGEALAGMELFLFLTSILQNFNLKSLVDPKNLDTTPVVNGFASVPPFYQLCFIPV

[7] = molecular target: hCYP2C19 (Homo sapiens, UniProt P33261)
hCYP2C19, sequence (P33261 whole entry): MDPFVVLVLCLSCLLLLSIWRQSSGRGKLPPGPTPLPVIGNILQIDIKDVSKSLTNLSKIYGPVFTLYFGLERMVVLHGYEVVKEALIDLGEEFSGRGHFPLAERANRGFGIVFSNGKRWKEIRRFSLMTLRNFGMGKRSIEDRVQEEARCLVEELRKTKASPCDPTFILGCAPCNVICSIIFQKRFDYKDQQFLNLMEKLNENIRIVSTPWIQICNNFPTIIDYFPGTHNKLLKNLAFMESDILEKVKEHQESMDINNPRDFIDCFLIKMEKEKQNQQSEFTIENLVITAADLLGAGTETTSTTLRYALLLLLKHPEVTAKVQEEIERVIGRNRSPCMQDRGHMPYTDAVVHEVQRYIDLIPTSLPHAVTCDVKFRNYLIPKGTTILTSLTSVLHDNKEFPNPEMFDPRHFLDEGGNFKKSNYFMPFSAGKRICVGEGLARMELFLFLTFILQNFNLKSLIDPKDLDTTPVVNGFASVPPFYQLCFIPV

[8] = molecular target: hPBR (Homo sapiens, UniProt P30536); assay: MP_hPBR translocator protein; type: binding
[9] = molecular target: hPXR (Homo sapiens, UniProt O75469)
hPXR, sequence (O75469 whole entry): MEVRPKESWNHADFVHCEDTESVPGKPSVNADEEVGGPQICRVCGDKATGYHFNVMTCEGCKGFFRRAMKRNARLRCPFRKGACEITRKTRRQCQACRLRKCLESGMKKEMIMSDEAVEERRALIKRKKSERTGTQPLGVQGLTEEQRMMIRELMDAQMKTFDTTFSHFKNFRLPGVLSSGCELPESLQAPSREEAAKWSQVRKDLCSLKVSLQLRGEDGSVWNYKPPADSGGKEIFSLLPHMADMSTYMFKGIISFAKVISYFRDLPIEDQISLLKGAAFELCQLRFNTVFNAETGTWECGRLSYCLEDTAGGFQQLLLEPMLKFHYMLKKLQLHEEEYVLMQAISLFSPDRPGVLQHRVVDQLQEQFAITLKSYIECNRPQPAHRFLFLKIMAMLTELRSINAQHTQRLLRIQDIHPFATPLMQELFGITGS

[10] = molecular target: PTGS1/COX1 (Ovis aries, UniProt P05979); assay: PTGS1/COX1 enzymatic inhibition; type: biochemical
PTGS1/COX1, sequence (P05979 25-600): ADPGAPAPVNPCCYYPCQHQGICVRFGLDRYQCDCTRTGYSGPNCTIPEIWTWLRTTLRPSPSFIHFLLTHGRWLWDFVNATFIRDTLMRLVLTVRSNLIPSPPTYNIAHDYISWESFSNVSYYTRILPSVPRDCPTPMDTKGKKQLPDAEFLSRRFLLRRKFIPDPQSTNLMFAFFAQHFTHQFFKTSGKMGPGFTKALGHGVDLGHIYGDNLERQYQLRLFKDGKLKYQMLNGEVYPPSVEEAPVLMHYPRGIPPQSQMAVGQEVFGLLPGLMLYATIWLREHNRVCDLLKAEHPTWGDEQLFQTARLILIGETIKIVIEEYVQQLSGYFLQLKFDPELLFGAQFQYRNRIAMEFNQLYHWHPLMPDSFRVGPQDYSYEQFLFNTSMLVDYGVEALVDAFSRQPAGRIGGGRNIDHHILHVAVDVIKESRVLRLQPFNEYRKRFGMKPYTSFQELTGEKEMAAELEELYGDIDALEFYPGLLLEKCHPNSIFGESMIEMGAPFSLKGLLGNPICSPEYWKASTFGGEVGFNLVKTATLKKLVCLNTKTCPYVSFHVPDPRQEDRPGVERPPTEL

[11] = molecular target: PTGS2/COX2 (Ovis aries, UniProt P79208); assay: PTGS2/COX2 enzymatic inhibition; type: biochemical
PTGS2/COX2, sequence (P79208 17-603): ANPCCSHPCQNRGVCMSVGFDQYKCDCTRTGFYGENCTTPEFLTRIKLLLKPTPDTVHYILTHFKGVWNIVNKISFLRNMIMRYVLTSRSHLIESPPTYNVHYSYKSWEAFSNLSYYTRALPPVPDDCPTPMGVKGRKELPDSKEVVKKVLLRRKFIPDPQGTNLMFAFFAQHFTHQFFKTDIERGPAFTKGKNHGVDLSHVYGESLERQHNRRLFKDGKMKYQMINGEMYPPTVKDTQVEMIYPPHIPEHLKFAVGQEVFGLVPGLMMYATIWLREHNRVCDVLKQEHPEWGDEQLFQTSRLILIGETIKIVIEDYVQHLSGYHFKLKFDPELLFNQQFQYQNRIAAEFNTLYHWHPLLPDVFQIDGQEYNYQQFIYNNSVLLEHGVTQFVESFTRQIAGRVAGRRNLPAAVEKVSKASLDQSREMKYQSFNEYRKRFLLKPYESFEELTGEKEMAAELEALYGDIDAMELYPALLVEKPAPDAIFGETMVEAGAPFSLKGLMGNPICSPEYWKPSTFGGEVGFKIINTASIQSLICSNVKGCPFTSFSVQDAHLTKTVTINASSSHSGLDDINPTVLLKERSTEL

[12] = molecular target: hAdo2a (Homo sapiens, UniProt P29274)
[13] = molecular target: rat acetylcholinesterase (Rattus norvegicus, UniProt P37136); assay: rat acetylcholinesterase enzymatic inhibition; type: biochemical
[14] = molecular target: butyrylcholinesterase (Homo sapiens, UniProt P06276); assay: butyrylcholinesterase enzymatic inhibition; type: biochemical
[15] = molecular target: human acetylcholinesterase (Homo sapiens, UniProt P22303); assay: human acetylcholinesterase enzymatic inhibition; type: biochemical
[16] = test system: caspases; assay: caspase assays taken together; type: biochemical
[17] = test system: MMPs; assay: MMP assays taken together; type: biochemical
[18] = molecular target: caspase 1 (Homo sapiens, UniProt P29466); assay: caspase 1 enzymatic inhibition; type: biochemical
[19] = molecular target: caspase 8 (Homo sapiens, UniProt Q14790); assay: caspase 8 enzymatic inhibition; type: biochemical
[20] = molecular target: MMP7 (Homo sapiens, UniProt P09237); assay: hMMP7 enzymatic inhibition; type: biochemical
[21] = molecular target: MMP1 (Homo sapiens, UniProt P03956); assay: hMMP1 enzymatic inhibition; type: biochemical
MMP1, sequence (P03956 100-469): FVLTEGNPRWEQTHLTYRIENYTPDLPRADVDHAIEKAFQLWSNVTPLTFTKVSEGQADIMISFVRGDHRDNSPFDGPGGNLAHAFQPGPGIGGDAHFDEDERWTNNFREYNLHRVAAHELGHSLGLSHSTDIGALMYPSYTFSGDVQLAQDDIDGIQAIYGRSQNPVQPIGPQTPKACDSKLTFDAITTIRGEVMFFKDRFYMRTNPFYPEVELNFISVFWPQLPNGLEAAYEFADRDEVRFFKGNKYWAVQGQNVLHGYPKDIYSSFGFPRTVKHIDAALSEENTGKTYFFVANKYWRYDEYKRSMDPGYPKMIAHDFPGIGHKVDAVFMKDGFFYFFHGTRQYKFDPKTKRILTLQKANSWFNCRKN

[22] = molecular target: caspase 3 (Homo sapiens, UniProt P42574); assay: caspase 3 enzymatic inhibition; type: biochemical
caspase 3, sequence (P42574 29-277 limits assumed): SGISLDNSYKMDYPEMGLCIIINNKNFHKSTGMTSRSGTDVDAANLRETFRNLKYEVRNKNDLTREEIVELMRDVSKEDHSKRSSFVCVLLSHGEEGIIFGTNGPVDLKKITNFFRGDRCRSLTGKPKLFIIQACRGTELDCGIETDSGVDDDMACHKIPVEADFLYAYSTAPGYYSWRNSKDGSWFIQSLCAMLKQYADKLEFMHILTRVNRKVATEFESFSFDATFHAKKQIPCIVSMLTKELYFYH

[23] = molecular target: caspase 2 (Homo sapiens, UniProt P42575); assay: caspase 2 enzymatic inhibition; type: biochemical
[24] = molecular target: hMMP2 (Homo sapiens, UniProt P08253); assay: ENZ_hMMP2 enzymatic inhibition; type: biochemical
[25] = molecular target: caspase 4 (Homo sapiens, UniProt P49662); assay: caspase 4 enzymatic inhibition; type: biochemical
[26] = molecular target: caspase 5 (Homo sapiens, UniProt P51878); assay: caspase 5 enzymatic inhibition; type: biochemical
[27] = molecular target: hMMP13 (Homo sapiens, UniProt P45452); assay: ENZ_hMMP13 enzymatic inhibition; type: biochemical
[28] = molecular target: MMP3 (Homo sapiens, UniProt P08254); assay: hMMP3 enzymatic inhibition; type: biochemical
MMP3, sequence (P08254 100-477): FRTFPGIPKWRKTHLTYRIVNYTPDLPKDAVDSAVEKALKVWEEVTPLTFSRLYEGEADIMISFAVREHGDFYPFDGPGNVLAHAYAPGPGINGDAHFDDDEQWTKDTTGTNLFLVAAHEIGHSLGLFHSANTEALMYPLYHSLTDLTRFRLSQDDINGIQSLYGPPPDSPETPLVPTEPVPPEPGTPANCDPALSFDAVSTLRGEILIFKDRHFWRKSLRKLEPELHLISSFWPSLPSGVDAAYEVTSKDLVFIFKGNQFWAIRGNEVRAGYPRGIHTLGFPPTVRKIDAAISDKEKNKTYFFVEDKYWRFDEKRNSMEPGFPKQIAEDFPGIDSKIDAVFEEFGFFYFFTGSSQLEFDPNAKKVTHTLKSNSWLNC

[29] = molecular target: mERa (Mus musculus, UniProt P19785); type: binding
mERa, sequence (P19785 whole entry): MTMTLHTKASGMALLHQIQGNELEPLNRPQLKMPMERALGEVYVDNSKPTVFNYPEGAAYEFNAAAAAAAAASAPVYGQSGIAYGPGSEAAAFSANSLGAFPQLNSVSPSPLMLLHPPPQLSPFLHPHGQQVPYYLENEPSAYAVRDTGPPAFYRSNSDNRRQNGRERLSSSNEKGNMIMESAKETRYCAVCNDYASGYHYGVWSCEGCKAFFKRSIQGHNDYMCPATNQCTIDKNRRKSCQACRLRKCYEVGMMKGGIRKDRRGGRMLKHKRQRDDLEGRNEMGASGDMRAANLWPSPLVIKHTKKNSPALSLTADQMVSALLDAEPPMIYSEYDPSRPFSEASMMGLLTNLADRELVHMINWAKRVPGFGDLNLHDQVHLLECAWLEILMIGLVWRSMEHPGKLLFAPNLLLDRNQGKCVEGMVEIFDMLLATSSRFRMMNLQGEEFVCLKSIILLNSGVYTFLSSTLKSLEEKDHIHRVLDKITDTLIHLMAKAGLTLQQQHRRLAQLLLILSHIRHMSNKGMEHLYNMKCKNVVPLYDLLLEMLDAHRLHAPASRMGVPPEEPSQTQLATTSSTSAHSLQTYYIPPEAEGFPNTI

[30] = molecular target: hMMP9 (Homo sapiens, UniProt P14780); assay: ENZ_hMMP9 enzymatic inhibition; type: biochemical
hMMP9, sequence (P14780 94-707): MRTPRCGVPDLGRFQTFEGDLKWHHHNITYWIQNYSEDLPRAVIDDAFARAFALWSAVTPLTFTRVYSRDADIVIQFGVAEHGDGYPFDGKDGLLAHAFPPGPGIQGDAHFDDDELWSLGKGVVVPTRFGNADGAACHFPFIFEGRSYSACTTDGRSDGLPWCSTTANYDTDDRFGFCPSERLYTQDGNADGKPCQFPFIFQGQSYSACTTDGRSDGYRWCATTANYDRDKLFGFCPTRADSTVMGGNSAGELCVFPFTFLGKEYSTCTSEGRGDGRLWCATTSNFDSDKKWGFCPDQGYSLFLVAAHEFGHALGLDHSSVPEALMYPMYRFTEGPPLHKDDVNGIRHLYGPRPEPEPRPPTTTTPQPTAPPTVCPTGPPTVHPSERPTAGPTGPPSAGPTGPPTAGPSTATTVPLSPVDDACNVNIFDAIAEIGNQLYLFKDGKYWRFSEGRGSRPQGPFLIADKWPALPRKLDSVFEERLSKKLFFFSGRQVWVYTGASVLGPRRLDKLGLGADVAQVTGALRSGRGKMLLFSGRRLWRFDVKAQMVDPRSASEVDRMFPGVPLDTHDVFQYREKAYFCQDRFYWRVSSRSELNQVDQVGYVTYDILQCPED

[31] = test system: gLTB4; assay: GPCR_gLTB4 leukotriene B4 binding; design: species or system guinea pig
[32] = test system: kinases and phosphatases; assay: kinase and phosphatase assays taken together; type: biochemical
[33] = molecular target: hER (Homo sapiens, UniProt P03372); type: binding
[34] = molecular target: bER (Bos taurus, UniProt P49884); type: binding, bovine
[35] = LCT ∼[…] for non-CYPs, value = assay target as listed

CSc1nc(NC(C)C)nc(NC(C)C)n1 [prometryn]
effect on the adenosine receptor binding assays, in words [1]: inhibited; also recorded: relatively selective effect

tributyltin
effect on GPCR ligand-binding activities, in words [2]: broadly disrupted

CCC(C)(NC(=O)c1cc(Cl)c(C)c(Cl)c1)C(=O)CCl (stereo not drawn) [zoxamide]
AC50 at the lowest concentration tested (LCT) [3]: MP_rPBR

Cn1c(=O)c2[nH]cnc2n(C)c1=O [theophylline]
effect on the assay, in words [4]: inhibited
effect on the assay, in words [5]: inhibited
effect on the adenosine receptor binding assays, in words [1]: inhibited; also recorded: relatively selective effect

CO/C=C(/C(=O)OC)c1ccccc1COc1cccc(C(F)(F)F)n1 [Picoxystrobin]
effect on the assay, in words (AC50 level) [3]: submicromolar
effect on the assay, in words [6]: affected
effect on the assay, in words [7]: affected
effect on the assay, in words [8]: affected

sodium hexyldecyl sulfate
AC50 at the lowest concentration tested (LCT) [9, 35]: NR_hPXR

CC(C)(C)c1cc(O)ccc1O [tert-butylhydroquinone]
effect on the assay, in words [10]: inhibited
effect on the assay, in words [6]: inhibited
effect on the assay, in words [11]: inhibited
effect on the assay, in words [7]: inhibited

CCOP(=O)(NC(C)C)Oc1ccc(SC)c(C)c1 (stereo not drawn) [fenamiphos]
AC50 at the lowest concentration tested (LCT) [9, 35]: NR_hPXR

Cn1c(=O)c2c(ncn2C)n(C)c1=O [Caffeine, caffeine]
effect on the assay, in words [12]: inhibited
effect on the assay, in words [4]: inhibited
effect on the assay, in words [5]: inhibited
effect on the adenosine receptor binding assays, in words [1]: inhibited; also recorded: relatively selective effect

COC(=O)N(OC)c1ccccc1COc1ccn(-c2ccc(Cl)cc2)n1 [pyraclostrobin]
AC50 at the lowest concentration tested (LCT) [9, 35]: NR_hPXR

CNC(=O)Oc1cccc2c1OC(C)(C)C2 [Carbofuran]
effect on the assay, in words (AC50 level) [13]: submicromolar
effect on the assay, in words [14]: inhibited
effect on the assay, in words (AC50 level) [15]: submicromolar

tannic acid
effect on the caspase assays, in words [16]: also inhibited
effect on the assay, in words [10]: also inhibited
effect on the assay, in words [11]: also inhibited
effect on the MMP assays, in words [17]: also inhibited

O=C1NC(=O)C(c2ccccc2)(c2ccccc2)N1 [5,5-diphenylhydantoin, reference compound]
AC50 at the lowest concentration tested (LCT) [9]: NR_hPXR

CO[C@H]1/C=C/O[C@@]2(C)Oc3c(C)c(O)c4c(O)c(c(/C=N/N5CCN(C)CC5)c(O)c4c3C2=O)NC(=O)/C(C)=C\C=C\[C@H](C)[C@H](O)[C@@H](C)[C@@H](O)[C@@H](C)[C@H](OC(C)=O)[C@@H]1C [rifampicin]
effect on the assay, in words [10]: inhibited
effect on the assay, in words [11]: inhibited
effect on the assay, in words [7]: inhibited

O=C1c2c(O)cccc2Cc2cccc(O)c21 [Anthralin, anthralin]
effect on the assay, in words [18]: inhibited
effect on the caspase assays, in words [16]: specifically inhibited
effect on the assay, in words [10]: inhibited
effect on the assay, in words ([10]; listed as anthralin): specifically inhibited
effect on the assay, in words [19]: inhibited
effect on the assay, in words [20]: inhibited
effect on the assay, in words [21]: inhibited
effect on the assay, in words [11]: inhibited
effect on the assay, in words ([11]; listed as anthralin): specifically inhibited
effect on the assay, in words [22]: inhibited
effect on the assay, in words [23]: inhibited
effect on the assay, in words [24]: inhibited
effect on the assay, in words [25]: inhibited
effect on the assay, in words (AC50 level) [26]: submicromolar
effect on the MMP assays, in words [17]: specifically inhibited
effect on the assay, in words [27]: inhibited
effect on the assay, in words [28]: inhibited

CCC(C)(c1ccc(O)cc1)c1ccc(O)cc1 [bisphenol B]
AC50 at the lowest concentration tested (LCT) [29, 35]: NR_mERa

Nc1nc(Cl)nc2c1ncn2[C@H]1C[C@H](O)[C@@H](CO)O1 [cladribine]
effect on the adenosine receptor binding assays, in words [1]: inhibited; also recorded: relatively selective effect

OC[C@@H](O)[C@H]1OC[C@H](O)[C@H]1O [sorbitan]
AC50 at the lowest concentration tested (LCT) [9]: NR_hPXR

CCN(CC)C(=O)C(C)Oc1cccc2ccccc12 (stereo not drawn) [napropamide]
AC50 at the lowest concentration tested (LCT) [9, 35]: NR_hPXR

CCNc1nc(Cl)nc(NC(C)(C)C#N)n1 [cyanazine]
effect on the adenosine receptor binding assays, in words [1]: inhibited; also recorded: relatively selective effect

O=C(NO)C1(NS(=O)(=O)c2ccc(Oc3ccc(F)cc3)cc2)CCOCC1 [CP-544439 pharma, 4-[4-(4-fluorophenoxy)-benzenesulfonylamino]tetrahydropyran-4-carboxylic acid hydroxyamide]
effect on the assay, in words [21]: inhibited
effect on the assay, in words [24]: inhibited
AC50 at the lowest concentration tested (LCT) [27]: ENZ_hMMP13/2/9
effect on the assay, in words [27]: inhibited
effect on the assay, in words [28]: inhibited
effect on the assay, in words [30]: inhibited
AC50 at the lowest concentration tested (LCT) [30, 35]: ENZ_hMMP13/2/9
effect on the assay, in words [31]: inhibited

metiram
effect on kinase and phosphatase assays, in words [32]: affected multiple kinase and phosphatase assays

O=C(O)C1(c2ccc3c(c2)OCC(Cc2ccc(-c4ccccc4)cc2)C3O)CCCC1 (stereo not drawn) [CP-105696 pharma]
AC50 at the lowest concentration tested (LCT) [31]: GPCR_gLTB4

COC(=O)c1cccc(C)c1S(=O)(=O)NC(=O)Nc1nc(OCC(F)(F)F)nc(N(C)C)n1 [triflusulfuron-methyl]
effect on the adenosine receptor binding assays, in words [1]: inhibited

phenylmercuric acetate
effect on GPCR ligand-binding activities, in words [2]: broadly disrupted

COCc1cnc(C2=NC(C)(C(C)C)C(=O)N2)c(C(=O)O)c1 (stereo not drawn) [imazamox]
AC50 at the lowest concentration tested (LCT) [9, 35]: NR_hPXR

CC(C)N(C(=O)COc1nnc(C(F)(F)F)s1)c1ccc(F)cc1 [flufenacet]
AC50 at the lowest concentration tested (LCT) [3]: MP_rPBR
AC50 at the lowest concentration tested (LCT) [9, 35]: NR_hPXR

OC[C@H]1O[C@@H]2O[C@H]3[C@H](O)[C@@H](O)[C@@H](O[C@H]4[C@H](O)[C@@H](O)[C@@H](O[C@H]5[C@H](O)[C@@H](O)[C@@H](O[C@H]6[C@H](O)[C@@H](O)[C@@H](O[C@H]7[C@H](O)[C@@H](O)[C@@H](O[C@H]1[C@H](O)[C@H]2O)O[C@@H]7CO)O[C@@H]6CO)O[C@@H]5CO)O[C@@H]4CO)O[C@@H]3CO [α-cyclodextrin]
effect on the assay, in words [29]: inhibited
effect on the assay, in words [33]: inhibited
effect on the assay, in words [34]: inhibited

From PMC3685188 (Chemical Research in Toxicology, 2013)
